Results: paper PMC12860872, “Preclinical evaluation of DOTAGA.Glu.(FAPI)2 and DO3A.Glu.(FAPI)2 as theranostics with human dosimetry extrapolation to lutetium-177 and terbium-161 analogs” (European Journal of Nuclear Medicine and Molecular Imaging, 2025)
“And” between values parts separate entries of the source, which are not always exact repeats. Identical values can stand only once.

What was measured:
PC3-mice = test: Organ clearance biological half-lives from biodistribution data; assay type: in vivo, mouse
Method: Blood samples were collected from the facial vein at 1, 3, 5, 7, 10, 15, 20, 30, 45, 60, 240, and 1440 min p.i., weighed, and measured for radioactivity using a γ-counter. Results were expressed as % I.A./g of blood and plotted over time. The initial and terminal half-lives were determined using Two-Phase Decay Model. The biological half-lives of selected organs were calculated from the biodistribution data using One-Phase Decay Model (GraphPad Prism 8).

[1] = Extrapolated human dosimetry (OLINDA/EXM, ICRP-89 phantoms); parameters: TIAC average pancreas: unit not given beside the values; TIAC average stomach / TIAC average Small Intestine / TIAC average Left Column / TIAC average Rectum / TIAC average adrenal / TIAC average bone / TIAC average Red marrow / TIAC average salivary glands / TIAC average ROB / TIAC average Total Frac IA / TIAC average heart content / TIAC average heart wall / TIAC average liver / TIAC average spleen / TIAC average lung / TIAC average kidney: unit not given here
Method: To address inter-animal variability, the TIACs for each source organ were calculated from both the mean nTACs and the nTACs obtainend from fitting the mean ± 1 standard deviation (SD) of the normalized time-activity data, providing upper and lower bounds.
The mice-to-human TIAC extrapolation accounted for species-specific differences in relative source organ masses, m(organ), as compared to the total body weight (WB), for the mice (m) and human (h) models respectively.
The human organ masses, m(organ)h, were obtained from ICRP-89 adult male and female reference phantoms, while the murine organ masses, m(organ)m, were derived from the standard MOBY mouse model. The extrapolated human TIACs, TIACh were entered in the OLINDA/EXM software to compute the absorbed doses to target organs and the effective dose for adult male, female, and gender-averaged human models. […]
The TIACs, for [177Lu]Lu-DOTAGA.Glu.(FAPI)2 and [177Lu]Lu-DO3A.Glu.(FAPI)2, were determined by time integration of the nTACs. To account for the inter-animal variability, the TIACs for each source organ were calculated using both the mean nTACs and the nTACs obtainend from fitting the mean ±1 standard deviation (SD) of the normalized time-activity data. This approach provided the upper and the lower bounds for the estimated TIACs.
The mice-to-human TIAC extrapolation was obtained considering the different (species-specific) relative source organ masses, m(organ), as compared to the total body weight (WB), for the mice (m) and human (h) models respectively.
The human organ masses, m(organ)h, were obtained from the adult male and female reference models phantoms defined in ICRP-89, while the murine organ masses, m(organ)m, were derived from the standard MOBY mouse model. The extrapolated human TIACs values, TIACh, for each source organ were input into the kinetic module of the OLINDA/EXM software (version 2.1, HERMES Medical Solutions AB, Stockholm, Sweden) to compute the absorbed doses to target organs and the effective dose for adult male, female, and gender-averaged human models. […]

[2] = PC3-mice, One-Phase Decay Model
[3] = ICRP 89 Adult Female, extrapolated
[4] = ICRP 89 Adult Male, extrapolated
[5] = human extrapolation, male-female range

N#C[C@@H]1CC(F)(F)CN1C(=O)CNC(=O)c1ccnc2ccc(OCCCCNC(=O)CC[C@H](NC(=O)CCC(C(=O)O)N3CCN(CC(=O)[O-])CCN(CC(=O)[O-])CCN(CC(=O)[O-])CC3)C(=O)NCCCCOc3ccc4nccc(C(=O)NCC(=O)N5CC(F)(F)C[C@H]5C#N)c4c3)cc12.[177Lu+3] (some centres unmarked) [[^177Lu]Lu-DOTAGA.Glu.(FAPI)2]
Bone clearance half-life, 95% confidence interval (PC3-mice; [2]): 27.60 to 33.77 h
Kidney clearance half-life, 95% confidence interval (PC3-mice; [2]): 23.41 to 38.84 h
Liver clearance half-life, 95% confidence interval (PC3-mice; [2]): 70.61 to 362.5 h
Pancreas clearance half-life, 95% confidence interval (PC3-mice; [2]): 16.87 to 39.95 h
Salivary glands clearance half-life, 95% confidence interval (PC3-mice; [2]): 12.06 to 34.90 h
Tumor clearance half-life, 95% confidence interval (PC3-mice; [2]): 19.85 to 32.80 h
tumor biological half-life (PC3-mice; PC3-tumors): 25.5 h
Absorbed dose (AD average) Adrenals [1, 3]: 1.46E-02 mGy/Mbq
Absorbed dose (AD average) Brain [1, 3]: 2.94E-02 mGy/Mbq
Absorbed dose (AD average) Breasts [1, 3]: 2.88E-02 mGy/Mbq
Absorbed dose (AD average) Esophagus [1, 3]: 3.06E-02 mGy/Mbq
Absorbed dose (AD average) Eyes [1, 3]: 2.94E-02 mGy/Mbq
Absorbed dose (AD average) Gallbladder Wall [1, 3]: 3.30E-02 mGy/Mbq
Absorbed dose (AD average) Heart Wall [1, 3]: 4.42E-02 mGy/Mbq
Absorbed dose (AD average) Kidneys [1, 3]: 4.97E-02 ± 0.002 mGy/Mbq and 4.97E-02 mGy/Mbq
Absorbed dose (AD average) Left colon [1, 3]: 1.05E-01 mGy/Mbq
Absorbed dose (AD average) Liver [1, 3]: 2.00E-01 ± 0.02 mGy/Mbq and 2.00E-01 mGy/Mbq
Absorbed dose (AD average) Lungs [1, 3]: 4.59E-02 ± 0.004 mGy/Mbq and 4.59E-02 mGy/Mbq
Absorbed dose (AD average) Osteogenic Cells [1, 3]: 8.92E-02 ± 0.01 mGy/Mbq and 8.92E-02 mGy/Mbq
Absorbed dose (AD average) Ovaries [1, 3]: 3.09E-02 mGy/Mbq
Absorbed dose (AD average) Pancreas [1, 3]: 3.90E-02 ± 0.002 mGy/Mbq and 3.90E-02 mGy/Mbq
Absorbed dose (AD average) Rectum [1, 3]: 1.07E-01 mGy/Mbq
Absorbed dose (AD average) Red Marrow [1, 3]: 3.24E-02 ± 0.003 mGy/Mbq and 3.24E-02 mGy/Mbq
Absorbed dose (AD average) Right colon [1, 3]: 6.88E-02 mGy/Mbq
Absorbed dose (AD average) Salivary Glands [1, 3]: 1.26E-01 ± 0.004 mGy/Mbq and 1.26E-01 mGy/Mbq
Absorbed dose (AD average) Small Intestine [1, 3]: 5.84E-02 ± 0.02 mGy/Mbq and 5.84E-02 mGy/Mbq
Absorbed dose (AD average) Spleen [1, 3]: 3.53E-02 ± 0.01 mGy/Mbq and 3.53E-02 mGy/Mbq
Absorbed dose (AD average) Stomach Wall [1, 3]: 4.24E-02 mGy/Mbq
Absorbed dose (AD average) Thymus [1, 3]: 3.04E-02 mGy/Mbq
Absorbed dose (AD average) Thyroid [1, 3]: 2.95E-02 mGy/Mbq
Absorbed dose (AD average) Total Body [1, 3]: 4.42E-02 ± 0.01 mGy/Mbq and 4.42E-02 mGy/Mbq
Absorbed dose (AD average) Urinary Bladder Wall [1, 3]: 3.05E-02 mGy/Mbq
Absorbed dose (AD average) Uterus [1, 3]: 3.10E-02 mGy/Mbq
Effective dose (average) [1, 3]: 4.71E-02
Absorbed dose (AD average) Adrenals [1, 4]: 1.17E-02 mGy/Mbq
Absorbed dose (AD average) Brain [1, 4]: 1.98E-02 mGy/Mbq
Absorbed dose (AD average) Esophagus [1, 4]: 2.11E-02 mGy/Mbq
Absorbed dose (AD average) Eyes [1, 4]: 1.97E-02 mGy/Mbq
Absorbed dose (AD average) Gallbladder Wall [1, 4]: 2.49E-02 mGy/Mbq
Absorbed dose (AD average) Heart Wall [1, 4]: 3.66E-02 mGy/Mbq
Absorbed dose (AD average) Kidneys [1, 4]: 4.08E-02 ± 0.002 mGy/Mbq and 4.08E-02 mGy/Mbq
Absorbed dose (AD average) Left colon [1, 4]: 8.56E-02 mGy/Mbq
Absorbed dose (AD average) Liver [1, 4]: 1.64E-01 ± 0.01 mGy/Mbq and 1.64E-01 mGy/Mbq
Absorbed dose (AD average) Lungs [1, 4]: 3.74E-02 ± 0.003 mGy/Mbq and 3.74E-02 mGy/Mbq
Absorbed dose (AD average) Osteogenic Cells [1, 4]: 9.26E-02 ± 0.01 mGy/Mbq and 9.26E-02 mGy/Mbq
Absorbed dose (AD average) Pancreas [1, 4]: 3.11E-02 ± 0.002 mGy/Mbq and 3.11E-02 mGy/Mbq
Absorbed dose (AD average) Prostate [1, 4]: 2.04E-02 mGy/Mbq
Absorbed dose (AD average) Rectum [1, 4]: 8.54E-02 mGy/Mbq
Absorbed dose (AD average) Red Marrow [1, 4]: 2.38E-02 ± 0.002 mGy/Mbq and 2.38E-02 mGy/Mbq
Absorbed dose (AD average) Right colon [1, 4]: 5.39E-02 mGy/Mbq
Absorbed dose (AD average) Salivary Glands [1, 4]: 1.03E-01 ± 0.004 mGy/Mbq and 1.03E-01 mGy/Mbq
Absorbed dose (AD average) Small Intestine [1, 4]: 4.17E-02 ± 0.01 mGy/Mbq and 4.17E-02 mGy/Mbq
Absorbed dose (AD average) Spleen [1, 4]: 2.87E-02 ± 0.01 mGy/Mbq and 2.87E-02 mGy/Mbq
Absorbed dose (AD average) Stomach Wall [1, 4]: 3.05E-02 mGy/Mbq
Absorbed dose (AD average) Testes [1, 4]: 1.95E-02 mGy/Mbq
Absorbed dose (AD average) Thymus [1, 4]: 2.03E-02 mGy/Mbq
Absorbed dose (AD average) Thyroid [1, 4]: 2.02E-02 mGy/Mbq
Absorbed dose (AD average) Total Body [1, 4]: 3.25E-02 ± 0.003 mGy/Mbq and 3.25E-02 mGy/Mbq
Absorbed dose (AD average) Urinary Bladder Wall [1, 4]: 2.03E-02 mGy/Mbq
Effective dose (average) ([1]; ICRP 89 Adult Male, extrapolated, in mSv/MBq (unit assumed)): 3.40E-02
absorbed dose kidneys [1, 5]: 0.04–0.05 Gy/GBq
absorbed dose liver [1, 5]: 0.16–0.20 Gy/GBq
absorbed dose salivary glands [1, 5]: 0.10–0.13 Gy/GBq
total body and effective doses [1, 5]: 0.033–0.044 Gy/GBq
TIAC average Left Column ([1]; human female, extrapolated): 0.1373
TIAC average ROB ([1]; human female, extrapolated): 18.6076
TIAC average Rectum ([1]; human female, extrapolated): 0.1420
TIAC average Red marrow ([1]; human female, extrapolated): 0.2030
TIAC average Small Intestine ([1]; human female, extrapolated): 0.1803
TIAC average Total Frac IA ([1]; human female, extrapolated): 25.6850
TIAC average adrenal ([1]; human female, extrapolated): 0.0011
TIAC average bone ([1]; human female, extrapolated): 4.9073
TIAC average heart content ([1]; human female, extrapolated): 0.0834
TIAC average heart wall ([1]; human female, extrapolated): 0.0889
TIAC average kidney ([1]; human female, extrapolated): 0.1445
TIAC average liver ([1]; human female, extrapolated): 3.1244
TIAC average lung ([1]; human female, extrapolated): 0.4651
TIAC average pancreas ([1]; human female, extrapolated): 0.0460
TIAC average salivary glands ([1]; human female, extrapolated): 0.1012
TIAC average spleen ([1]; human female, extrapolated): 0.0480
TIAC average stomach ([1]; human female, extrapolated): 0.0626
TIAC average Left Column ([1]; human male, extrapolated): 0.1129
TIAC average ROB ([1]; human male, extrapolated): 15.0586
TIAC average Rectum ([1]; human male, extrapolated): 0.1129
TIAC average Red marrow ([1]; human male, extrapolated): 0.2169
TIAC average Small Intestine ([1]; human male, extrapolated): 0.1684
TIAC average Total Frac IA ([1]; human male, extrapolated): 25.6850
TIAC average adrenal ([1]; human male, extrapolated): 0.0009
TIAC average bone ([1]; human male, extrapolated): 5.5459
TIAC average heart content ([1]; human male, extrapolated): 0.0945
TIAC average heart wall ([1]; human male, extrapolated): 0.0965
TIAC average kidney ([1]; human male, extrapolated): 0.1339
TIAC average liver ([1]; human male, extrapolated): 3.3017
TIAC average lung ([1]; human male, extrapolated): 0.4829
TIAC average pancreas ([1]; human male, extrapolated): 0.0441
TIAC average salivary glands ([1]; human male, extrapolated): 0.1010
TIAC average spleen ([1]; human male, extrapolated): 0.0456
TIAC average stomach ([1]; human male, extrapolated): 0.0557
